Each structure is given as a SMILES string. A value given as a limit tells only on which side of the number the result lay.

Holding throughout (type): biochemical
One assay addresses Human FXIa (Homo sapiens (Human), UniProt P03951). As to the kind of experiment: Determination of the % inhibition for FXIa. As to conditions: 40 μM test compound, 25° C., substrate Z-Gly-Pro-Arg-AFC. How it is done: Determination of the % Inhibition for FXIa
Human FXIa (Enzyme Research Laboratories) was incubated at 25° C. with the fluorogenic substrate Z-Gly-Pro-Arg-AFC and 40 μM of the test compound. Residual enzyme activity (initial rate of reaction) was determined by measuring the change in […].

The next assay deals with Human KLK1 (Homo sapiens (Human), UniProt P06870). As to the kind of experiment: Determination of the IC50 for KLK1. As to conditions: 25° C., fluorogenic substrate H-DVal-Leu-Arg-AFC. As for the experimental part: Determination of the IC50 for KLK1
Human KLK1 (Callbiochem) was incubated at 25° C. with the fluorogenic substrate H-DVal-Leu-Arg-AFC and various concentrations of the test compound. Residual enzyme activity (initial rate of reaction) was determined by measuring the change in […] at 410 nm and the IC50 value for the test compound was determined.

In the next assay the target is Human plasma kallikrein (Homo sapiens (Human), UniProt P03952). Description: Determination of the IC50 for plasma kallikrein. The following applies: 25° C., fluorogenic substrate H-DPro-Phe-Arg-AFC; read-out: IC50 (human PKaI). How it is done:
Determination of the IC50 for Plasma Kallikrein
Human plasma kallikrein (Protogen) was incubated at 25° C. with the fluorogenic substrate H-DPro-Phe-Arg-AFC and various concentrations of the test compound. Residual enzyme activity (initial rate of reaction) was determined by measuring the change in […] at 410 nm and the IC50 value for the test compound was determined.

Sequence of Human plasma kallikrein (P03952 391-638): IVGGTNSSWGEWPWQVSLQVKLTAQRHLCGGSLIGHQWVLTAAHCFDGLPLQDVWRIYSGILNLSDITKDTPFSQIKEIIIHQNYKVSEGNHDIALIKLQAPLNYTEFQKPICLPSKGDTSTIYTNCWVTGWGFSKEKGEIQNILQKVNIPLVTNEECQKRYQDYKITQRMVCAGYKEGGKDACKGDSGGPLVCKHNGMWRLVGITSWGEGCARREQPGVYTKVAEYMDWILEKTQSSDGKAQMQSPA
Sequence of Human plasma kallikrein (P03952 20-390 partner): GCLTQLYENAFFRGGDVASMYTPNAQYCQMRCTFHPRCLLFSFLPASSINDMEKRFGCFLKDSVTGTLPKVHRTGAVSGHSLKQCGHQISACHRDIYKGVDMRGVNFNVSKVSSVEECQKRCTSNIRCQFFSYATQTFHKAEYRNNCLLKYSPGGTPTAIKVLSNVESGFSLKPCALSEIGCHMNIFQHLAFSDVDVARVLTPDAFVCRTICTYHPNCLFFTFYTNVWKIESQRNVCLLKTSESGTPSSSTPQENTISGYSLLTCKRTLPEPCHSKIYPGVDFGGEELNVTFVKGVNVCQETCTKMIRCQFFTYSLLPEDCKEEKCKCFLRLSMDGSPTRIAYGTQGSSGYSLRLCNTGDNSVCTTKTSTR
Sequence of Human KLK1 (P06870 25-262): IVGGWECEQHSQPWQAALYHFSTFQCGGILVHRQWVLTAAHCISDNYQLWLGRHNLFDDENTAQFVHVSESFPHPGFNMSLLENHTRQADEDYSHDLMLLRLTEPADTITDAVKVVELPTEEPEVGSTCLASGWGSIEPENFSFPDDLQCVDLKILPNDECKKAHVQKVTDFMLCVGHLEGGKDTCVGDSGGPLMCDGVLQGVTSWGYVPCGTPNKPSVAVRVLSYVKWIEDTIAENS
Sequence of Human FXIa (P03951 388-625): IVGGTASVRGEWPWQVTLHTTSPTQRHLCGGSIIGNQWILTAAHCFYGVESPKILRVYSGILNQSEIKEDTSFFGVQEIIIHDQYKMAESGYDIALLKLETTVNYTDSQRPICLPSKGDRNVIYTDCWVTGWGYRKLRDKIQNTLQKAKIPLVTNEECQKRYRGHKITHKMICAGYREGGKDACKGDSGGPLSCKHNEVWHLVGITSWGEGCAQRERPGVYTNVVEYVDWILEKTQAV
Sequence of Human FXIa (P03951 19-387 partner): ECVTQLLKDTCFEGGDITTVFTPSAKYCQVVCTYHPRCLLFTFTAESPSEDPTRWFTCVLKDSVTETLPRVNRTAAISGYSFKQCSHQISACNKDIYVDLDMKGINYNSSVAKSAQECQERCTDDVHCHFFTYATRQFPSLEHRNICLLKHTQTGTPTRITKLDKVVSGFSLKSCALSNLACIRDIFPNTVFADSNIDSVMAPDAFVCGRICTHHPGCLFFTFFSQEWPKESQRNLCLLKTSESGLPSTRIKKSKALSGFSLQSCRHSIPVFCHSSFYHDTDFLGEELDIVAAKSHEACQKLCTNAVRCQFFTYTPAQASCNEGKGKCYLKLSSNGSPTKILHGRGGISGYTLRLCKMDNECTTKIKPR

The term inhibition denotes the relative decrease from the control value, in per cent. A higher inhibition goes with a strong effect. One may read the IC50 as the concentration that inhibits the measured activity by half. At Human FXIa, `COCc1nn(Cc2ccc(Cn3ccccc3=O)cc2)cc1C(=O)NCc1cc(F)cc(OC)c1F` [Example 96, N-[(2,5-difluoro-3-methoxyphenyl)methyl]-3-(methoxymethyl)-1-({4-[(2-oxopyridin-1-yl)methyl]phenyl}methyl)pyrazole-4-carboxamide] came in with an inhibition at 40 µM of 0%. Further, the IC50 is greater than 40000 nM on Human KLK1 and 75 nM at Human plasma kallikrein.

As for `COCc1nn(Cc2ccc(Cn3ccccc3=O)cc2)cc1C(=O)NCc1ccccc1C(F)(F)F` [Example 63, 3-(methoxymethyl)-1-({4-[(2-oxopyridin-1-yl)methyl]phenyl}methyl)-N-{[2-(trifluoromethyl)phenyl]methyl}pyrazole-4-carboxamide], at 40 µM the inhibition on Human FXIa was 0%. Moreover, the IC50 against Human KLK1 is greater than 10000 nM; on Human plasma kallikrein it was 342 nM.

In turn, `COCc1nn(Cc2ccc(Cn3ccccc3=O)cc2)cc1C(=O)NCc1c(F)cccc1C(N)=O` [Example 85, N-[(2-carbamoyl-6-fluorophenyl)methyl]-3-(methoxymethyl)-1-({4-[(2-oxopyridin-1-yl)methyl]phenyl}methyl)pyrazole-4-carboxamide] registered an inhibition at 40 µM on Human FXIa of 46%. For the same compound, the values for the IC50 on Human KLK1 and on Human plasma kallikrein were greater than 40000 nM and 79.2 nM, respectively.

In turn, `CCc1cccc(CNC(=O)c2cn(Cc3ccc(Cn4ccccc4=O)cc3)nc2COC)c1F` [Example 132, N-[(3-ethyl-2-fluorophenyl)methyl]-3-(methoxymethyl)-1-({4-[(2-oxopyridin-1-yl)methyl]phenyl}methyl)pyrazole-4-carboxamide] displayed an inhibition at 40 µM on Human FXIa of 0%. For the same compound, the results for the IC50 at Human KLK1 and on Human plasma kallikrein were greater than 40000 nM and 135 nM, respectively.

On to `COCc1nn(Cc2ccc(Cn3ccccc3=O)cc2)cc1C(=O)NCc1cc(F)ccc1F` [Example 94, N-[(2,5-difluorophenyl)methyl]-3-(methoxymethyl)-1-({4-[(2-oxopyridin-1-yl)methyl]phenyl}methyl)pyrazole-4-carboxamide], for which 40 µM produced 0% inhibition at Human FXIa. The IC50 against Human KLK1 was greater than 10000 nM; on Human plasma kallikrein, 780 nM.

The compound `CCOc1ccn(Cc2ccc(Cn3cc(C(=O)NCc4c(F)ccc(OC)c4F)c(COC)n3)cc2)c(=O)c1` [Example 109, N-[(2,6-difluoro-3-methoxyphenyl)methyl]-1-({4-[(4-ethoxy-2-oxopyridin-1-yl)methyl]phenyl}methyl)-3-(methoxymethyl)pyrazole-4-carboxamide] displayed an inhibition at 40 µM at Human FXIa of 2%. Moreover, the IC50 at Human KLK1 was greater than 10000 nM; at Human plasma kallikrein, 2980 nM.

As for `COCc1nn(Cc2ccc(Cn3ccccc3=O)cc2)cc1C(=O)NCc1c(C)cccc1F` [Example 97, N-[(2-fluoro-6-methylphenyl)methyl]-3-(methoxymethyl)-1-({4-[(2-oxopyridin-1-yl)methyl]phenyl}methyl)pyrazole-4-carboxamide], the inhibition at 40 µM against Human FXIa was found to be 0%. Also, the 50% inhibitory concentration (IC50) is greater than 10000 nM on Human KLK1 and 153 nM at Human plasma kallikrein.

At Human FXIa, `COc1cccc(CNC(=O)c2cn(Cc3ccc(Cn4ccccc4=O)cc3)nc2N(C)C(C)=O)c1F` [Example 72, N-[(2-fluoro-3-methoxyphenyl)methyl]-3-(N-methylacetamido)-1-({4-[(2-oxopyridin-1-yl)methyl]phenyl}methyl)pyrazole-4-carboxamide] returned an inhibition at 40 µM of 1%. The IC50 is greater than 10000 nM on Human KLK1 and 6610 nM at Human plasma kallikrein.

For the compound `COc1cccc(CNC(=O)c2cn(Cc3ccc(Cn4ccccc4=O)cc3)c(C)n2)c1F` [Example 121, N-[(2-fluoro-3-methoxyphenyl)methyl]-2-methyl-1-({4-[(2-oxopyridin-1-yl)methyl]phenyl}methyl)imidazole-4-carboxamide], on Human FXIa, testing at 40 µM gave an inhibition of 0%. The IC50 was greater than 10000 nM on Human KLK1 and 43.9 nM at Human plasma kallikrein.

`COCc1nn(Cc2ccc(Cn3ccccc3=O)cc2)cc1C(=O)NCc1ccccc1C(=O)OC` [Example 131, methyl 2-({[3-(methoxymethyl)-1-({4-[(2-oxopyridin-1-yl)methyl]phenyl}methyl)pyrazol-4-yl]formamido}methyl)benzoate]: the inhibition at 40 µM against Human FXIa was determined as 0%. Besides, the concentration for half-maximal inhibition (IC50) against Human KLK1 is greater than 10000 nM; at Human plasma kallikrein, 1510 nM.

As to `COCc1nn(Cc2ccc(Cn3ccccc3=O)cc2)cc1C(=O)NCc1nc(OC)ccc1F` [Example 42, N-[(3-fluoro-6-methoxypyridin-2-yl)methyl]-3-(methoxymethyl)-1-({4-[(2-oxopyridin-1-yl)methyl]phenyl}methyl)pyrazole-4-carboxamide], on Human FXIa, 40 µM produced 1% inhibition. Moreover, the 50% inhibitory concentration (IC50) is greater than 10000 nM against Human KLK1 and 831 nM on Human plasma kallikrein.

Regarding `COCc1nn(Cc2ccc(Cn3ccccc3=O)cc2)cc1C(=O)NCc1c(F)ccc(Cl)c1F` [Example 73, N-[(3-chloro-2,6-difluorophenyl)methyl]-3-(methoxymethyl)-1-({4-[(2-oxopyridin-1-yl)methyl]phenyl}methyl)pyrazole-4-carboxamide], the inhibition at 40 µM against Human FXIa came out at 8%. The IC50 is greater than 10000 nM against Human KLK1 and 120 nM on Human plasma kallikrein.

The compound `COCc1nn(Cc2ccc(Cn3ccccc3=O)cc2)cc1C(=O)NCc1cccnc1C(F)(F)F` [Example 36, 3-(methoxymethyl)-1-({4-[(2-oxopyridin-1-yl)methyl]phenyl}methyl)-N-{[2-(trifluoromethyl)pyridin-3-yl]methyl}pyrazole-4-carboxamide] registered an inhibition at 40 µM against Human FXIa of 0%. Further, the IC50 against Human KLK1 is greater than 10000 nM; at Human plasma kallikrein, 4170 nM.

Consider `COCc1nn(Cc2ccc(Cn3ccccc3=O)cc2)cc1C(=O)NCc1cccc(OC)n1` [Example 40, 3-(methoxymethyl)-N-[(6-methoxypyridin-2-yl)methyl]-1-({4-[(2-oxopyridin-1-yl)methyl]phenyl}methyl)pyrazole-4-carboxamide], for which, on Human FXIa, testing at 40 µM gave an inhibition of 1%. Further, the half-inhibitory concentration (IC50) against Human KLK1 is greater than 10000 nM; at Human plasma kallikrein, 3700 nM.

`CN1CC(CNC(=O)c2cn(Cc3ccc(Cn4ccccc4=O)cc3)nc2N)Oc2cc(Cl)ccc21` (stereo not drawn) [Example 139, 3-amino-N-[(7-chloro-4-methyl-2,3-dihydro-1,4-benzoxazin-2-yl)methyl]-1-({4-[(2-oxopyridin-1-yl)methyl]phenyl}methyl)pyrazole-4-carboxamide] displayed an inhibition at 40 µM on Human FXIa of 33%. Also, the IC50 was greater than 40000 nM at Human KLK1 and 64.7 nM on Human plasma kallikrein.

On to `COCc1nn(Cc2ccc(Cn3ccccc3=O)cc2)cc1C(=O)NCc1cc(Cl)ccc1C#N` [Example 76, N-[(5-chloro-2-cyanophenyl)methyl]-3-(methoxymethyl)-1-({4-[(2-oxopyridin-1-yl)methyl]phenyl}methyl)pyrazole-4-carboxamide], for which, on Human FXIa, the inhibition at 40 µM was 5%. Besides, the IC50 was greater than 40000 nM on Human KLK1 and 28.3 nM on Human plasma kallikrein.

`COCc1nn(Cc2ccc(Cn3ccccc3=O)cc2)cc1C(=O)NCc1cccc(OC(F)F)c1` [Example 91, N-{[3-(difluoromethoxy)phenyl]methyl}-3-(methoxymethyl)-1-({4-[(2-oxopyridin-1-yl)methyl]phenyl}methyl)pyrazole-4-carboxamide] gave an inhibition at 40 µM on Human FXIa of 0%. The figures for the IC50 against Human KLK1 and at Human plasma kallikrein were greater than 10000 nM and 523 nM, respectively.

Compound `COCc1nn(Cc2ccc(Cn3ccccc3=O)cc2)cc1C(=O)NCc1ccccc1C(=O)O` [Example 87, 2-({[3-(methoxymethyl)-1-({4-[(2-oxopyridin-1-yl)methyl]phenyl}methyl)pyrazol-4-yl]formamido}methyl)benzoic acid] showed an inhibition at 40 µM on Human FXIa of 2%. The IC50 against Human KLK1 and on Human plasma kallikrein was greater than 10000 nM each time.

With `COCc1nn(Cc2ccc(Cn3ccccc3=O)cc2)cc1C(=O)NCc1cccc(OC)c1C(F)(F)F` [Example 78, N-{[3-methoxy-2-(trifluoromethyl)phenyl]methyl}-3-(methoxymethyl)-1-({4-[(2-oxopyridin-1-yl)methyl]phenyl}methyl)pyrazole-4-carboxamide], testing at 40 µM against Human FXIa gave an inhibition of 0%. The values for the IC50 against Human KLK1 and on Human plasma kallikrein were greater than 10000 nM and 612 nM, respectively.

With `COc1cccc(CNC(=O)c2cn(Cc3ccc(N4CCCC4)nc3)nc2C(F)(F)F)c1F` [Example 126, N-[(2-fluoro-3-methoxyphenyl)methyl]-1-{[6-(pyrrolidin-1-yl)pyridin-3-yl]methyl}-3-(trifluoromethyl)pyrazole-4-carboxamide], at Human FXIa, the inhibition at 40 µM was determined as 10%. Further, the IC50 was greater than 10000 nM against Human KLK1 and 742 nM on Human plasma kallikrein.

In the case of `Nc1nn(Cc2ccc(Cn3ccccc3=O)cc2)cc1C(=O)NCc1ccc(OC(F)(F)F)cc1` [Example 58, 3-amino-1-({4-[(2-oxopyridin-1-yl)methyl]phenyl}methyl)-N-{[4-(trifluoromethoxy)phenyl]methyl}pyrazole-4-carboxamide], the “% Inhibition @ 40 μM (human FXIa)” value on Human FXIa is 0%. Besides, the values for the IC50 against Human KLK1 and at Human plasma kallikrein were greater than 10000 nM and 5780 nM, respectively.

The values are drawn from US10364238B2, “N-((het) arylmethyl)-heteroaryl-carboxamides compounds as plasma kallikrein inhibitors” (KALVISTA PHARMACEUTICALS LIMITED, priority 2014, dated 2019).
